Results from patent publication US20260258420A1, “COMPOSITIONS AND METHODS FOR THE TREATMENT OF HUMAN PAPILLOMAVIRUS-DRIVEN CANCERS” (priority 2023, published 2026).

Tests used:
[1] = tested on: HPV-negative cell lines; assay: Rb family protein and cleaved caspase-3 levels in HPV-negative cells; format: cell-based
Description: The effect of RB1 silencing on the expression of other RB family members (RBL1, RBL2) was also examined. It was observed that the levels of RBL1 remained unchanged with the treatment. However, the protein levels of RBL2 decreased with RB1 silencing as well as with alisertib treatment. The effect of RB1 silencing on RBL2 was likely due to pooled siRNAs. Using RB1 shRNA, an effect of RB1 depletion on RBL2 was not observed, but the enhanced alisertib-induced apoptosis was observed, supporting a role for RB1 alone in this effect.
A decrease of Rb protein expression following Aurora kinase inhibition was noted, that may be related to G2/M cell cycle arrest. Alternatively, it may be that the HPV negative cells with low Rb expression are the ones that survive after Aurora inhibition. To test this at the single cell level, two HPV-negative cell lines were co-stained with anti-Rb labelled with FITC conjugate and anti-cleaved caspase-3 labelled with TRITC and treated with alisertib or vehicle control. As expected in these unsynchronized cells, Rb expression was detectable, but modestly heterogeneous in control cells. […] Consistent with prior data, cells with higher Rb levels have no or very low levels of cleaved caspase-3. Cells with lower Rb levels have modest levels of cleaved caspase-3.

[2] = tested on: 16 HPV-positive and 17 HPV-negative HNSCC and cervical squamous cancer cell lines; assay: High-throughput drug screen (HTDS), whole panel, comparison by HPV status; format: cell-based; settings: AOC_LD as a dichotomous variable
Protocol: The concordance correlation coefficient was computed to assess the reproducibility of the normalized growth rates of the 2 replicates. […] A chi-square test was applied to compare drug classification and the cluster membership. The Fisher exact test was applied to compare mutations status (wild-type and mutant) and drugs' response data (sensitive and resistant).
The effects of 864 unique drugs from 51 classes was tested in 16 HPV-positive and 17 HPV-negative HNSCC and cervical squamous cancer cell lines (Table 2) that were characterized previously (Kaiu, et al., Oncotarget 2017; 8(49):86369-83).

[3] = tested on: HPV-negative HNSCC cells (HN31, UMSCC4, and MDA886LN) with RB1 knockdown; assay: Apoptosis after RB1 depletion in HPV-negative cells (annexin V, immunoblot); format: cell-based
Protocol: FIG. 4B, HPV-negative HNSCC cells (HN31, UMSCC4, and MDA886LN) were infected with distinct, lentivirus-based shRNAs (Sh2, Sh4, and Sh6) to stably knock down the expression of RB1 or were treated with control (Ctrl) shRNA. Cells were then treated with 300 nmol/L alisertib for 24 hours before annexin V-PE/7AAD staining and analysis with flow cytometry. The bar graph represents the ratio of apoptosis (late plus early) among different groups. Values are the means±the standard deviations for 3 independent experiments. *P<0.05; **P<0.005; unpaired, 2-tailed Student t-test. FIG. 4C, cells from FIG. 4B were treated with 300 nmol/L alisertib for 24 hours before lysis and immunoblotting with the indicated antibodies. […] Representative results from 3 independent experiments are shown. Cl, cleaved; Fl, full length; GAPDH, glyceraldehyde 3-phosphate dehydrogenase; Ox, overexpression.
To measure apoptosis, TUNEL staining was performed with an APO-BRDU Kit (BD Biosciences, San Jose, CA) and annexin V/propidium iodide staining with an FITC Annexin V Apoptosis Detection Kit PE (eBioscience, San Diego, CA) as described previously (Kalu, et al., Cancer Lett 2018; 431:64-72). […] Data were acquired with a 3-laser, 10-color Gallios flow cytometer (Beckman Coulter, Brea, CA) and analyzed using Kaluza software, RRID:SCR_016182 (Beckman Coulter, Brea, CA). Assays were performed in triplicate, and each test was completed twice on different days.
The lentiviral-based shRNA (GIPZ plasmid) used to knock down human RB1 expression was purchased from Horizon Discovery (Waterbeach, United Kingdom). On the basis of the knockdown efficiency of Rb1 protein expression in 3 HPV-negative cell lines (HN31, UMSCC4, and MDA88 6LN), shRblclones were selected (#2, #4, and #6) for this study. […] The mature antisense sequences were as follows: 5′-[sequence]-3′ (SEQ ID NO:1) (shRb1 #2), 5′-[sequence]-3′ (SEQ ID NO:2) (shRb1 #4), and 5′-[sequence]-3′ (SEQ ID NO:3) (shRb1 #6). To generate lentivirus-expressing shRNA for RB1, HEK 293T cells were transfected with GIPZ-non-silence (for the vector control virus) and GIPZ-shRB1 with jetPEI transfection reagent (RRID:CVCL_0063). The medium was changed 24 hours after transfection and then collected every 48 hours thereafter. The collected lentivirus-containing medium was centrifuged and then filtered (0.45 μM).

[4] = tested on: HN31 cells stably transfected with an E7 plasmid; assay: Apoptosis in HPV-negative cells overexpressing E7; format: cell-based; settings: 300 nmol/L, 24 hours
Protocol: Each data point represents 1 cell line. Box plots show the median pRb […] levels and 95% confidence intervals across all cell lines in the category. t-test P=0.0097. FIG. 4B, HPV-negative HNSCC cells (HN31, UMSCC4, and MDA886LN) were infected with distinct, lentivirus-based shRNAs (Sh2, Sh4, and Sh6) to stably knock down the expression of RB1 or were treated with control (Ctrl) shRNA. Cells were then treated with 300 nmol/L alisertib for 24 hours before annexin V-PE/7AAD staining and analysis with flow cytometry. The bar graph represents the ratio of apoptosis (late plus early) among different groups. Values are the means±the standard deviations for 3 independent experiments. *P<0.05; **P<0.005; unpaired, 2-tailed Student t-test. FIG. 4C, cells from FIG. 4B were treated with 300 nmol/L alisertib for 24 hours before lysis and immunoblotting with the indicated antibodies. FIG. 4D-E, HN31 cells were stably transfected with an E7 plasmid and treated with 300 nmol/L alisertib for 24 hours before lysis and immunoblotting with (FIG. 4D) the indicated antibodies or (FIG. 4E) annexin-PE staining to measure apoptosis. Values are the means±the standard deviations for 3 independent experiments. ** P≤0.01; *** P≤0.001. FIG. 4F, two HPV-positive cell lines were transfected with 10 nmol/L siRNA oligonucleotides specific to E7 or with control oligonucleotides. […]

[5] = tested on: HN31 and MDA886LN cells expressing RB1 shRNA; assay: Apoptosis with TRIP13 overexpression, RB1-knockdown HPV-negative cells; format: cell-based; settings: 300 nmol/L
Protocol: FIG. 5A, two HPV-positive cell lines (CASKI and SIHA) were transfected with BUB1B or MAD2L1 siRNA and then treated for 24 hours with 300 nmol/L alisertib before lysis and immunoblotting with the indicated antibodies. FIG. 5B, TRIP13 was transiently overexpressed (Ox) in 2 HPV-positive cell lines that were treated for 24 hours with 300 nmol/L alisertib before lysis and immunoblotting for the indicated proteins. FIG. 5C, HPV-positive cell lines with TRIP13 overexpression were treated with 300 nmol/L alisertib for 32 hours and then stained for annexin V-PE/7AAD staining and analysis with flow cytometry to measure apoptosis. The bar graph represents the ratio of apoptosis (late plus early) among different groups. Values are the means±the standard deviations for 3 independent experiments. ** P≤0.01; *** P≤0.001; unpaired, 2-tailed Student t-test. FIG. 5D, HN31 (left panel) and MDA886LN (right panel) cells expressing RB1 or control shRNA were transfected with a plasmid for TRIP13. After 24 hours, cells were treated with 300 nmol/L alisertib and then lysed for immunoblotting. Cl, cleaved; Fl, full length; GAPDH, glyceraldehyde 3-phosphate dehydrogenase.
In normal cells, prolonged mitosis resulting from Mad2 overexpression can lead to G1 arrest or mitotic cell death, so it is unclear why Mad2 overexpression is tolerated in HPV-positive cancers. […]

[6] = human clinical trials; cited from earlier work
[7] = two HPV-negative cell lines, vs control cells
[8] = RB1 shRNA, 300 nmol/L, 24 hours

COc1cc(Nc2ncc3c(n2)-c2ccc(Cl)cc2C(c2c(F)cccc2OC)=NC3)ccc1C(=O)O [ALISERTIB, alisertib]
protein levels of RBL2 [1]: decreased | Rb expression (single cell staining) [1, 7]: notably lower | cleaved caspase 3 (single cell staining) [1, 7]: slightly higher | efficacy in HPV-positive vs HPV-negative cell lines [2]: tended to be more effective in HPV-positive cell lines | cleaved PARP levels ([3]; RB1 depleted by transient transfection): increase in cleaved PARP levels | apoptosis (cleaved caspase-3 and cleaved PARP) in cells with reduced Rb levels [3, 8]: induced significant apoptosis | increase in annexin V-positive apoptotic cells when Rb was depleted [3, 8]: approximately 3 fold | apoptosis in control cells with detectable Rb protein levels ([3]; control shRNA, 300 nmol/L, 24 hours): did not induce apoptosis | apoptosis (cleaved caspase-3, PARP, annexin V) [4]: selectively enhanced apoptosis | apoptosis with TRIP13 overexpression [5]: reduced apoptosis | common toxicities [6]: anemia, thrombocytopenia, and neutropenia
